Legend:
DYRK1A = conditions: treatment with EGCG, as reported previously; cited from earlier work
[1] = tested on: yeast cells overexpressing Cys4; assay: Drug screening in yeast: suppression of methionine auxotrophy (halo of restored growth around filter); type: cell-based, Saccharomyces cerevisiae; conditions: same plate assay; high concentrations = close to the filter
Procedure: As an example, for the drug screening, yeast cells transformed with p424-GPD and p426-GPD plasmids containing yeast CBS (CYS4) coding sequence were grown in uracil- and tryptophan-free minimal liquid medium (SD-Ura/Trp) overnight at 29°C. The following day, cells were diluted to OD600∼0.2 in fresh medium and grown for 4 hours to reach exponential phase. Then three hundred and fifty microliters of exponentially growing yeast cells overexpressing CYS4, adjusted to an OD600 of 0.5, were spread homogeneously with sterile glass beads (a mix of ∼1.5 and 3 mm diameter) on a square Petri dish (12 cm × 12cm) containing uracil-, tryptophan- and methionine-free minimal agar-based solid medium (SD-UrarTrp/Met). In addition, to get a degree of methionine auxotrophy sufficient to allow an efficient screening, the screening medium was supplemented with serine (2% (w/v)), which is one of CYS4/CBS substrates. Sterile filters (Thermo Fisher similar to those used for antibiograms) were placed on the agar surface, and 2 µl of individual compound from the various chemical libraries were applied to each filter. […]
According to the present invention, it was decided to create a yeast model in which the phenotypical consequences of CBS overexpression may be easily and conveniently monitored in order to get a potential in cellulo high throughput drug screening procedure. […]

Row | SMILES | cognitive aspects found altered in people with DS (DYRK1A) | toxicity on CYS4-overexpressing cells [1]
1 | O=C(O[C@@H]1Cc2c(O)cc(O)cc2O[C@@H]1c1cc(O)c(O)c(O)c1)c1cc(O)c(O)c(O)c1 [epigallocatechin-3-gallate] | can restore some cognitive aspects found altered in people with DS but the gain was limited | 
2 | CCN(CC)C(=S)SSC(=S)N(CC)CC [DSF, Disulfiram] |  | toxic at high concentrations
